From PMC6001238, “Iterative Chemical Engineering of Vancomycin Leads to Novel Vancomycin Analogs With a High in Vitro Therapeutic Index” (Frontiers in Microbiology, 2018)
In brackets after ≈: the same amount, converted by molar mass.

Tests used:
MRSA KS6 = assay: MIC, broth microdilution, MRSA KS6; assay type: cell-based, Staphylococcus aureus; conditions: for MIC-fold improvement vs. vancomycin: MRSA KS6, ratio of MIC of vancomycin and MIC of analogue; for MIC: Staphylococcus aureus MRSA KS6, read-out: MIC
How it was run: (§1)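 Inhibitory concentrations were read by the CLSI broth microdilution procedure, with water and sterile broth as controls. One experiment added vancomycin (10 μM final) together with each analogue or reference antibiotic.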

MRSA KS2 = assay: MIC, broth microdilution, MRSA KS2; assay type: cell-based, Staphylococcus aureus; conditions: for MIC-fold improvement vs. vancomycin: MRSA KS2, ratio of MIC of vancomycin and MIC of analogue; for MIC: Staphylococcus aureus MRSA KS2, read-out: MIC
How it was run: as §1

[1] = tested on: S. aureus VSSA (ATCC 6538); assay: MIC, broth microdilution, vancomycin-sensitive S. aureus (VSSA/MSSA, ATCC 6538); assay type: cell-based, Staphylococcus aureus; conditions: for MIC: Staphylococcus aureus VSSA, read-out: MIC; for MIC-fold improvement vs. vancomycin: VSSA, ratio of MIC of vancomycin and MIC of analogue
How it was run: as §1

S. aureus VISA/HIP5827 = assay: MIC, broth microdilution, vancomycin-intermediate S. aureus VISA HIP5827; assay type: cell-based, Staphylococcus aureus; conditions: for MIC: Staphylococcus aureus VISA/HIP5827, read-out: MIC; for MIC-fold improvement vs. vancomycin: VISA/HIP5827, ratio of MIC of vancomycin and MIC of analogue
How it was run: as §1

E. faecalis VSE 1 = assay: MIC, broth microdilution, vancomycin-sensitive E. faecalis (VSE 1); assay type: cell-based, Enterococcus faecalis; conditions: for MIC: Enterococcus faecalis VSE 1 (vancomycin-sensitive), read-out: MIC; for MIC-fold improvement vs. vancomycin: VSE 1, ratio of MIC of vancomycin and MIC of analogue
How it was run: as §1

E. faecalis VRE 6 = assay: MIC, broth microdilution, vancomycin-resistant E. faecalis VRE 6 (VanA); assay type: cell-based, Enterococcus faecalis; conditions: for MIC: Enterococcus faecalis VRE 6 (vancomycin-resistant), read-out: MIC; for MIC-fold improvement vs. vancomycin: VRE 6, ratio of MIC of vancomycin and MIC of analogue
How it was run: as §1

[2] = tested on: L1210, CEM and HeLa cell lines; assay: Cytostatic activity, average or summary over L1210, CEM and HeLa; assay type: cell-based; conditions: average of L1210, CEM and HeLa; read-out: Toxicity (IC50) Average
How it was run: (§2)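 Test compounds, serially diluted, received an equal volume of cell suspension at 300,000–500,000 cells/mL. After 37°C incubation (2 days for L1210, 3 for CEM, 4 for HeLa), cells were enumerated by Coulter counting and 50%-inhibitory concentrations calculated per cell type.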

MRSA KS1 = assay: MIC, broth microdilution, MRSA KS1; assay type: cell-based, Staphylococcus aureus; conditions: for MIC-fold improvement vs. vancomycin: MRSA KS1, ratio of MIC of vancomycin and MIC of analogue; for MIC: Staphylococcus aureus MRSA KS1, read-out: MIC
How it was run: as §1

E. faecalis VRE 53 = assay: MIC, broth microdilution, vancomycin-resistant E. faecalis VRE 53 (VanA); assay type: cell-based, Enterococcus faecalis; conditions: for MIC: Enterococcus faecalis VRE 53 (vancomycin-resistant), read-out: MIC; for MIC-fold improvement vs. vancomycin: VRE 53, ratio of MIC of vancomycin and MIC of analogue
How it was run: as §1

MRSA KS89 = assay: MIC, broth microdilution, MRSA KS89; assay type: cell-based, Staphylococcus aureus; conditions: for MIC-fold improvement vs. vancomycin: MRSA KS8, ratio of MIC of vancomycin and MIC of analogue; for MIC: Staphylococcus aureus MRSA KS8, read-out: MIC
How it was run: as §1

[3] = tested on: Murine leukemia (L1210) cells; assay: Cytostatic activity, L1210 cell proliferation; assay type: cell-based; conditions: mean ± SD of three experiments; highest concentration tested 250 µM; 2 days; read-out: Toxicity (IC50) L1210
How it was run: as §2

E. faecalis VRE 37 = assay: MIC, broth microdilution, vancomycin-resistant E. faecalis VRE 37 (VanA); assay type: cell-based, Enterococcus faecalis; conditions: for MIC: Enterococcus faecalis VRE 37 (vancomycin-resistant), read-out: MIC; for MIC-fold improvement vs. vancomycin: VRE 37, ratio of MIC of vancomycin and MIC of analogue
How it was run: as §1

E. faecalis VRE 29 = assay: MIC, broth microdilution, vancomycin-resistant E. faecalis VRE 29 (VanA); assay type: cell-based, Enterococcus faecalis; conditions: for MIC: Enterococcus faecalis VRE 29 (vancomycin-resistant), read-out: MIC; for MIC-fold improvement vs. vancomycin: VRE 29, ratio of MIC of vancomycin and MIC of analogue
How it was run: as §1

S. aureus VRSA = assay: MIC, broth microdilution, vancomycin-resistant S. aureus (VRSA); assay type: cell-based, Staphylococcus aureus; conditions: for MIC: Staphylococcus aureus VRSA, read-out: MIC; for MIC-fold improvement vs. vancomycin: VRSA, ratio of MIC of vancomycin and MIC of analogue
How it was run: as §1

[4] = tested on: human cervix carcinoma (HeLa) cells; assay: Cytostatic activity, HeLa cell proliferation; assay type: cell-based; conditions: mean ± SD of three experiments; highest concentration tested 250 µM; 4 days; read-out: Toxicity (IC50) HeLa
How it was run: as §2

[5] = tested on: human T-lymphocyte (CEM) cells; assay: Cytostatic activity, CEM cell proliferation; assay type: cell-based; conditions: mean ± SD of three experiments; highest concentration tested 250 µM; 3 days; read-out: Toxicity (IC50) CEM
How it was run: as §2

Row | SMILES | MIC-fold improvement vs. vancomycin (MRSA KS6) | MIC (MRSA KS6) | MIC-fold improvement vs. vancomycin (MRSA KS2) | MIC (MRSA KS2) | MIC [1] | MIC-fold improvement vs. vancomycin [1] | MIC (S. aureus VISA/HIP5827) | MIC-fold improvement vs. vancomycin (S. aureus VISA/HIP5827) | MIC (E. faecalis VSE 1) | MIC-fold improvement vs. vancomycin (E. faecalis VSE 1) | MIC (E. faecalis VRE 6) | MIC-fold improvement vs. vancomycin (E. faecalis VRE 6) | IC50 [2] | MIC-fold improvement vs. vancomycin (MRSA KS1) | MIC (MRSA KS1) | MIC (E. faecalis VRE 53) | MIC-fold improvement vs. vancomycin (E. faecalis VRE 53) | MIC-fold improvement vs. vancomycin (MRSA KS89) | MIC (MRSA KS89) | IC50 [3] | also measured
1 | CN[C@H](CC(C)C)C(=O)N[C@H]1C(=O)N[C@@H](CC(N)=O)C(=O)N[C@H]2C(=O)N[C@H]3C(=O)N[C@H](C(=O)N[C@H](C(=O)NCCNC(=O)/C=C/c4ccc(C)cc4)c4cc(O)cc(O)c4-c4cc3ccc4O)[C@H](O)c3ccc(c(Cl)c3)Oc3cc2cc(c3O[C@@H]2O[C@H](CO)[C@@H](O)[C@H](O)[C@H]2O[C@H]2C[C@](C)(N)[C@H](O)[C@H](C)O2)Oc2ccc(cc2Cl)[C@H]1O [Vanc-53] | 2 | 0.39 µM (≈ 0.638 µg/mL) | 2 | 0.39 µM (≈ 0.638 µg/mL) | 0.39 µM (≈ 0.638 µg/mL) | 2 | 0.78 µM (≈ 1.28 µg/mL) | 8 | 0.78 µM (≈ 1.28 µg/mL) | 2 | 12.5 µM (≈ 20.4 µg/mL) | 16 | 168 µM | 2 | 0.39 µM (≈ 0.638 µg/mL) | 12.5 µM (≈ 20.4 µg/mL) | 32 | 2 | 0.39 µM (≈ 0.638 µg/mL) | 176 ± 18 µM | MIC (E. faecalis VRE 37): 25 µM (≈ 40.9 µg/mL); MIC-fold improvement vs. vancomycin (E. faecalis VRE 37): 16; MIC (E. faecalis VRE 29): 25 µM (≈ 40.9 µg/mL); MIC-fold improvement vs. vancomycin (E. faecalis VRE 29): 16; MIC (S. aureus VRSA): 0.39 µM (≈ 0.638 µg/mL); MIC-fold improvement vs. vancomycin (S. aureus VRSA): 256; IC50 [4]: 176 ± 103 µM; IC50 [5]: 152 ± 43 µM
2 | CN[C@H](CC(C)C)C(=O)N[C@H]1C(=O)N[C@@H](CC(N)=O)C(=O)N[C@H]2C(=O)N[C@H]3C(=O)N[C@H](C(=O)N[C@H](C(=O)NCCNC(=O)/C=C/c4ccc(NS(=O)(=O)c5ccccc5)cc4)c4cc(O)cc(O)c4-c4cc3ccc4O)[C@H](O)c3ccc(c(Cl)c3)Oc3cc2cc(c3O[C@@H]2O[C@H](CO)[C@@H](O)[C@H](O)[C@H]2O[C@H]2C[C@](C)(N)[C@H](O)[C@H](C)O2)Oc2ccc(cc2Cl)[C@H]1O [Vanc-54] | 2 | 0.39 µM (≈ 0.693 µg/mL) | 2 | 0.39 µM (≈ 0.693 µg/mL) | 0.39 µM (≈ 0.693 µg/mL) | 2 | 0.78 µM (≈ 1.39 µg/mL) | 8 | 0.78 µM (≈ 1.39 µg/mL) | 2 | 12.5 µM (≈ 22.2 µg/mL) | 16 | 185 µM | 2 | 0.39 µM (≈ 0.693 µg/mL) | 25 µM (≈ 44.4 µg/mL) | 16 | 2 | 0.39 µM (≈ 0.693 µg/mL) | > 250 µM | MIC (E. faecalis VRE 37): 25 µM (≈ 44.4 µg/mL); MIC-fold improvement vs. vancomycin (E. faecalis VRE 37): 16; MIC (E. faecalis VRE 29): 25 µM (≈ 44.4 µg/mL); MIC-fold improvement vs. vancomycin (E. faecalis VRE 29): 16; MIC (S. aureus VRSA): 0.39 µM (≈ 0.693 µg/mL); MIC-fold improvement vs. vancomycin (S. aureus VRSA): 256; IC50 [4]: 54 ± 29 µM; IC50 [5]: ≥ 250 µM
3 | CN[C@H](CC(C)C)C(=O)N[C@H]1C(=O)N[C@@H](CC(N)=O)C(=O)N[C@H]2C(=O)N[C@H]3C(=O)N[C@H](C(=O)N[C@H](C(=O)NCCNC(=O)/C=C/c4ccc(NS(=O)(=O)c5ccc(C)cc5)cc4)c4cc(O)cc(O)c4-c4cc3ccc4O)[C@H](O)c3ccc(c(Cl)c3)Oc3cc2cc(c3O[C@@H]2O[C@H](CO)[C@@H](O)[C@H](O)[C@H]2O[C@H]2C[C@](C)(N)[C@H](O)[C@H](C)O2)Oc2ccc(cc2Cl)[C@H]1O [Vanc-55] | 2 | 0.39 µM (≈ 0.698 µg/mL) | 4 | 0.20 µM (≈ 0.358 µg/mL) | 0.78 µM (≈ 1.4 µg/mL) | 1 | 0.78 µM (≈ 1.4 µg/mL) | 8 | 0.39 µM (≈ 0.698 µg/mL) | 4 | 6.25 µM (≈ 11.2 µg/mL) | 32 | 201 µM | 4 | 0.20 µM (≈ 0.358 µg/mL) | 12.5 µM (≈ 22.4 µg/mL) | 32 | 2 | 0.39 µM (≈ 0.698 µg/mL) | > 250 µM | MIC (E. faecalis VRE 37): 12.5 µM (≈ 22.4 µg/mL); MIC (E. faecalis VRE 29): 12.5 µM (≈ 22.4 µg/mL); MIC-fold improvement vs. vancomycin (E. faecalis VRE 29): 32; MIC (S. aureus VRSA): 0.39 µM (≈ 0.698 µg/mL); MIC-fold improvement vs. vancomycin (S. aureus VRSA): 256; IC50 [4]: 103 ± 10 µM; IC50 [5]: ≥ 250 µM
4 | CN[C@H](CC(C)C)C(=O)N[C@H]1C(=O)N[C@@H](CC(N)=O)C(=O)N[C@H]2C(=O)N[C@H]3C(=O)N[C@H](C(=O)N[C@H](C(=O)NCCNC(=O)/C=C/c4ccc(NS(=O)(=O)c5ccc(C(C)C)cc5)cc4)c4cc(O)cc(O)c4-c4cc3ccc4O)[C@H](O)c3ccc(c(Cl)c3)Oc3cc2cc(c3O[C@@H]2O[C@H](CO)[C@@H](O)[C@H](O)[C@H]2O[C@H]2C[C@](C)(N)[C@H](O)[C@H](C)O2)Oc2ccc(cc2Cl)[C@H]1O [Vanc-56] | 4 | 0.20 µM (≈ 0.364 µg/mL) | 4 | 0.20 µM (≈ 0.364 µg/mL) | 0.39 µM (≈ 0.709 µg/mL) | 2 | 0.78 µM (≈ 1.42 µg/mL) | 8 | 0.39 µM (≈ 0.709 µg/mL) | 4 | 3.13 µM (≈ 5.69 µg/mL) | 64 | 201 µM | 1 | 0.78 µM (≈ 1.42 µg/mL) | 6.25 µM (≈ 11.4 µg/mL) | 64 | 2 | 0.39 µM (≈ 0.709 µg/mL) | > 250 µM | MIC (E. faecalis VRE 37): 6.25 µM (≈ 11.4 µg/mL); MIC-fold improvement vs. vancomycin (E. faecalis VRE 37): 64; MIC (E. faecalis VRE 29): 6.25 µM (≈ 11.4 µg/mL); MIC-fold improvement vs. vancomycin (E. faecalis VRE 29): 64; MIC (S. aureus VRSA): 0.39 µM (≈ 0.709 µg/mL); MIC-fold improvement vs. vancomycin (S. aureus VRSA): 256; IC50 [4]: 104 ± 17 µM; IC50 [5]: ≥ 250 µM
